Measurements: patent US11337971B2, “Dopamine D3 receptor selective antagonists/partial agonists and uses thereof” (THE UNITED STATES OF AMERICA, AS REPRESENTED BY THE …, priority 2018, dated 2022)
Where “and” joins values, the source holds several entries; their conditions need not be identical. Identical values can stand only once. Entries after “also recorded” stand apart in the source; their conditions may differ. Like-named read-outs stand apart in the source and are kept apart here.

Key:
Male Long-Evans rats [1] = test: Naloxone-precipitated conditioned place aversion (CPA) in chronic oxycodone-treated rats; format: in vivo, rat; conditions: 5 or 15 mg/kg, i.p., 1 h before naloxone conditioning
Procedure: Naloxone-precipitated CPA was tested in a place-conditioning apparatus (Med Associates, St Albans, Vt.) consisting of two side compartments (21 cm×28 cm) and a central gray connecting area (21 cm×12.5 cm); a sliding door separated each compartment from the connecting area. The two side compartments differed in wall color (black vs white), floor type (stainless steel net vs stainless steel grid), and illumination. Before the experiment started, all the animals were allowed to explore the conditioning apparatus for 15 min (preconditioning).
Six groups (n=8/group) of rats were involved in this test, 3 groups were chronically treated with oxycodone (3 mg/kg, i.p.) and the other 3 with saline (1 ml/kg), twice daily (800 and 1800 h). Four hours following the morning injection on Day 4 and 6, the oxycodone treated rats were challenged with saline and immediately confined in one side compartment of the conditioning box for 30 min, while on Day 5 and 7, they were first pretreated with either vehicle or 1 of 2 doses of compound (±)-29 (5 and 15 mg/kg, i.p.) 3 h after morning oxycodone injection, and 1 h later, challenged with naloxone (1 mg/kg, i.p.). […] The time that animals spent in each compartment was recorded. The CPA score was calculated as the time difference (seconds) that animal spent in drug-paired versus saline-paired compartment.

human D3R = human D3R (Homo sapiens (Human), UniProt P35462); test: Radioligand competition binding, [3H]N-methylspiperone, HEK293 membranes expressing human D3R; conditions: read-out: D3R Ki ± SEM
Chain of human D3R (P35462 whole entry): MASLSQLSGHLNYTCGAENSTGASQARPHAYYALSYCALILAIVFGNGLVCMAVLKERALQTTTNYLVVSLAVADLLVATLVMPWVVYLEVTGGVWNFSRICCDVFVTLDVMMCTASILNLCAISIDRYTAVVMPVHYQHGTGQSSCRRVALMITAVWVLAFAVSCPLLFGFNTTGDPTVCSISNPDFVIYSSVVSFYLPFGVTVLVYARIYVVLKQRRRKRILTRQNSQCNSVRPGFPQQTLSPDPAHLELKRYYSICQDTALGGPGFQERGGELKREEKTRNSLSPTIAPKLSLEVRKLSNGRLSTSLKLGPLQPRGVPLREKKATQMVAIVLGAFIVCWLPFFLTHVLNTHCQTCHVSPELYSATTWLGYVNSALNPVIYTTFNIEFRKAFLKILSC
In short: (§1)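 HEK293 membranes (10 μg protein) incubated 1 h at room temperature in EBSS with 0.2 mM sodium metabisulfite, 0.4 nM [3H]N-methylspiperone and compound (10 μM to 10 pM, triplicate). Nonspecific binding defined with 10 μM butaclamol; GF/B filtration.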

[2] = Phase I metabolic stability in rhesus monkey liver microsomes; format: in vitro ADME
[3] = tested on: oxycodone-induced locomotor sensitization and CPP; test: Acquisition of oxycodone-induced locomotor sensitization and CPP; conditions: in vivo
Male Long-Evans rats [4] = test: Oxycodone self-administration under progressive ratio (PR) reinforcement; conditions: 5, 15, 25 mg/kg, i.p.
human D2R = human D2R (Homo sapiens (Human), UniProt P14416); test: Radioligand competition binding, [3H]N-methylspiperone, HEK293 membranes expressing human D2R; conditions: read-out: D2R Ki ± SEM
Chain of human D2R (P14416 whole entry): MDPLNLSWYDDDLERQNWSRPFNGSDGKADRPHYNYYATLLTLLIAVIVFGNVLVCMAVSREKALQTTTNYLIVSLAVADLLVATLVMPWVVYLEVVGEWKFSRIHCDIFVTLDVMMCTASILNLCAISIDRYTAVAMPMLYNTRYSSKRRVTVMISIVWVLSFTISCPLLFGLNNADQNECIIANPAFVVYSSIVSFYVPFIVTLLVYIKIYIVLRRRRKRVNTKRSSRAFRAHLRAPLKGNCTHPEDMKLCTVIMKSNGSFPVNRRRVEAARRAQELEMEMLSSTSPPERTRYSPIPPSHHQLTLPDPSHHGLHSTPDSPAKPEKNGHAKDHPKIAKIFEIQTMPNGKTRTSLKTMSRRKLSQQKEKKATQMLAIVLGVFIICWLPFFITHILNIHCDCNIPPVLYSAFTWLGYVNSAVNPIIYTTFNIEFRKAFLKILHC
In short: as §1

For `CCc1cc(Cl)c(OC)c(N2CCN(CC(O)CCNC(=O)c3cc4ccccc4[nH]3)CC2)c1` (racemic) [Compound 29, N-(4-(4-(3-chloro-5-ethyl-2-methoxyphenyl)piperazin-1-yl)-3-hydroxybutyl)-1H-indole-2-carboxamide], the “naloxone-precipitated CPA in chronically oxycodone-treated rats” value (Male Long-Evans rats [1]) was “dose-dependently attenuated the CPA induced by naloxone; also recorded: significantly blocked CPA induced by naloxone-precipitated withdrawal; also recorded: inhibition of naloxone-precipitated conditioned place aversion”, the Ki (human D3R; Table 1B, [3H]-N-methylspiperone competition, 96-well plates) was 7 nM and 6.84 nM and the Ki (human D3R; Table 1C) was 7.61 ± 1.17 nM. The “% at 0 min.” value ([2]; 0 min) was 100%, the “% at 30 min.” value ([2]; 30 min) was 79% and the “% at 60 min.” value ([2]; 60 min) was 66%. For the same molecule, the “acquisition of oxycodone-induced locomotor sensitization and CPP” value [3] was “significantly inhibits acquisition of both oxycodone-induced locomotor sensitization and CPP”, the “break-point for oxycodone self-administration under PR reinforcement” value (Male Long-Evans rats [4]) was “significantly and dose-dependently lowers the break-point; also recorded: dose-dependently lowered the PR break-point” and the Ki (human D2R; Table 1B, [3H]-N-methylspiperone competition, D2LR, 96-well plates) was 11400 ± 3270 nM. The Ki (human D2R; Table 1C) was 13200 ± 3770 nM.
